Where two headings read alike, the source gives them in different places.
What was measured:
human CB2 receptors = human CB2 receptors (Homo sapiens (Human), UniProt P34972); experiment: human CB2 radioligand binding assay ([3H]CP 55,940 competition)
Protocol: (§1) The CB1 and CB2 radioligand binding assays described herein are utilized to ascertain the affinity of compounds of the present application for binding to CB2 relative to CB1 receptors.
HEK293 cells stably expressing human CB2 receptors were grown until a confluent monolayer was formed. Briefly, the cells were harvested and homogenized in TE buffer (50 mM Tris-HCl, 1 mM MgCl2, and 1 mM EDTA) using a polytron for 2×10 second bursts in the presence of protease inhibitors, followed by centrifugation at 45,000×g for 20 minutes. The final membrane pellet was re-homogenized in storage buffer (50 mM Tris-HCl, 1 mM MgCl2, and 1 mM EDTA and 10% sucrose) and frozen at −78° C. until used. Saturation binding reactions were initiated by the addition of membrane preparation (protein concentration of 5 μg/well for human CB2) into wells of a deep well plate containing [^3H]CP 55,940 (120 Ci/mmol, a nonselective CB agonist commercially available from Tocris) in assay buffer (50 mM Tris, 2.5 mM EDTA, 5 mM MgCl2, and 0.5 mg/mL fatty acid free BSA, pH 7.4). After 90 min incubation at 30° C., binding reaction was terminated by the addition of 300 μL/well of cold assay buffer followed by rapid vacuum filtration through a UniFilter-96 GF/C filter plates (pre-soaked in 1 mg/mL BSA for 2 hours). The bound activity was counted in a TopCount using Microscint-20. Saturation experiments were conducted with twelve concentrations of [^3H]CP 55,940 ranging from 0.01 to 8 nM. Competition experiments were conducted with 0.5 nM [^3H]CP 55,940 and five concentrations (0.01 nM to 10 μM) of displacing ligands. The addition of 10 μM unlabeled CP 55,940 (Tocris, Ellisville, Mo.) was used to assess nonspecific binding.

rat CB2 = rat CB2 (Rattus norvegicus (Rat), UniProt Q9QZN9); experiment: rat CB2 radioligand binding assay ([3H]CP 55,940 competition)
rat CB2, sequence (Q9QZN9 whole entry): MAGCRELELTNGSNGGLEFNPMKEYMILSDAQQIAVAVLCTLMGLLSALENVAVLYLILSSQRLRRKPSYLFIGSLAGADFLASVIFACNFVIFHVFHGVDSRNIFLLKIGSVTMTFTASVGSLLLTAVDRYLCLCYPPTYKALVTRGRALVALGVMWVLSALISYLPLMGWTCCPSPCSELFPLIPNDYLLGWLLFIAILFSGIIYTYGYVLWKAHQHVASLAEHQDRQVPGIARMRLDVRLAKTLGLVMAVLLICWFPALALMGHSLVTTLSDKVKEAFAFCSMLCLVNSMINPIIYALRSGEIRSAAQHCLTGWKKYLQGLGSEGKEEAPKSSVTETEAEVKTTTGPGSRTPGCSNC
Protocol: as §1
HEK293 cells stably expressing rat CB2 receptors were grown until a confluent monolayer was formed. Briefly, the cells were harvested and homogenized in TE buffer (50 mM Tris-HCl, 1 mM MgCl2, and 1 mM EDTA) using a polytron for 2×10 second bursts in the presence of protease inhibitors, followed by centrifugation at 45,000×g for 20 minutes. The final membrane pellet was re-homogenized in storage buffer (50 mM Tris-HCl, 1 mM MgCl2, and 1 mM EDTA and 10% sucrose) and frozen at −78° C. until used. Saturation binding reactions were initiated by the addition of membrane preparation (protein concentration of 20 μg/well for rat CB2) into wells of a deep well plate containing [^3H]CP 55,940 (120 Ci/mmol, a nonselective CB agonist commercially available from Tocris) in assay buffer (50 mM Tris, 2.5 mM EDTA, 5 mM MgCl2, and 0.5 mg/mL fatty acid free BSA, pH 7.4). After 45 min incubation at 30° C., binding reaction was terminated by the addition of 300 μl/well of cold assay buffer followed by rapid vacuum filtration through a UniFilter-96 GF/C filter plates (pre-soaked in 1 mg/mL BSA for 2 hours). The bound activity was counted in a TopCount using Microscint-20. Saturation experiments were conducted with twelve concentrations of [^3H]CP 55,940 ranging from 0.01 to 8 nM. Competition experiments were conducted with 0.5 nM [^3H]CP 55,940 and five concentrations of displacing ligands selected from the range of 0.01 nM to […] addition of 10 μM unlabeled CP 55,940 (Tocris, Ellisville, Mo.) was used to assess nonspecific binding.

[1] = HEK293 membranes, 0.5 nM [3H]CP 55,940, read-out: human CB2 (Ki)
[2] = HEK293 membranes, 0.5 nM [3H]CP 55,940, read-out: rat CB2 (Ki)

human CB2 receptors, sequence (P34972 whole entry): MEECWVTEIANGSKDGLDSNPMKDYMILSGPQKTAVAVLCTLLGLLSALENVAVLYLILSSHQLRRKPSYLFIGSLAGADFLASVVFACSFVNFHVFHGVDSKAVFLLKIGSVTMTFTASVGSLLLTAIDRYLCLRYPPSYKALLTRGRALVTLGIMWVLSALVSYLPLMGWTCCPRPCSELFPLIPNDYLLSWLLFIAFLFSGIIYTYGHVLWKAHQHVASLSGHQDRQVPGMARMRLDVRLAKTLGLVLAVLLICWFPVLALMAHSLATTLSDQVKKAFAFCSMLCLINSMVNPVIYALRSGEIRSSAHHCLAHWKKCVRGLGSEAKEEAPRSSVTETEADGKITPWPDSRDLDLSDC

Compound | Ki (human CB2 receptors; [1]) | Ki (rat CB2; [2]) | Ki (human CB2 receptors) | Ki (rat CB2)
CCCCn1nc(C(C)(C)C)s/c1=N\C(=O)c1cc(C(F)(F)F)ccc1ON=C(N)C(C)C [Example 175, 2-({[1-amino-2-methylpropylidene]amino}oxy)-N-[(2Z)-3-butyl-5-tert-butyl-1,3,4-thiadiazol-2(3H)-ylidene]-5-(trifluoromethyl)benzamide] | 5.3 nM | 2.9 nM | – | –
CCCCn1nc(C(C)(C)C)s/c1=N\C(=O)c1cc(C(F)(F)F)ccc1ON=C(N)C(=O)OCC [Example 176, ethyl amino {[2-({[(2Z)-3-butyl-5-tert-butyl-1,3,4-thiadiazol-2(3H)-ylidene]amino}carbonyl)-4-(trifluoromethyl)phenoxy]imino}acetate] | 6.1 nM | 1.7 nM | – | –
CC(C)(C)NOc1ccc(C(F)(F)F)cc1C(=O)/N=c1\sc(C(C)(C)C)nn1CC1CCO1 (stereo not drawn) [Example 177, 2-[(tert-butylamino)oxy]-N-[(2Z)-5-tert-butyl-3-(oxetan-2-ylmethyl)-1,3,4-thiadiazol-2(3H)-ylidene]-5-(trifluoromethyl)benzamide] | 15 nM | 7.3 nM | – | –
C/C(=N\Oc1ccc(C(F)(F)F)cc1C(=O)/N=c1\cc(C(C)(C)C)n(C)n1C[C@H]1CCCO1)C(F)(F)F [Example 178, N-{(3E)-5-tert-butyl-1-methyl-2-[(2R)-tetrahydrofuran-2-ylmethyl]-1,2-dihydro-3H-pyrazol-3-ylidene}-5-(trifluoromethyl)-2-({[(1E)-2,2,2-trifluoro-1-methylethylidene]amino}oxy)benzamide] | > 1000 nM | 40 nM | – | –
C/C(=N\Oc1ccc(C(F)(F)F)cc1C(=O)/N=c1\cc(C(C)(C)C)n(C)n1CC1CC1)C(F)(F)F [Example 179, N-[(3E)-5-tert-butyl-2-(cyclopropylmethyl)-1-methyl-1,2-dihydro-3H-pyrazol-3-ylidene]-5-trifluoromethyl-2-({[(1E)-2,2,2-trifluoro-1-methylethylidene]amino}oxy)benzamide] | > 1000 nM | 288 nM | – | –
CCCCn1nc(C(C)(C)C)s/c1=N\C(=O)c1cc(C(F)(F)F)ccc1O/N=C(\C)C(C)=O [Example 180, N-[(2Z)-3-butyl-5-tert-butyl-1,3,4-thiadiazol-2(3H)-ylidene]-2-({[(1E)-1-methyl-2-oxopropylidene]amino}oxy)-5-(trifluoromethyl)benzamide] | 18 nM | 11 nM | – | –
CCCCn1nc(C(C)(C)C)s/c1=N\C(=O)c1cc(C(F)(F)F)ccc1NNC(=O)OC(C)(C)C [Example 181, tert-butyl 2-[2-({[(2Z)-3-butyl-5-tert-butyl-1,3,4-thiadiazol-2(3H)-ylidene]amino}carbonyl)-4-(trifluoromethyl)phenyl]hydrazinecarboxylate] | – | – | 1 nM | 1.7 nM
CCCCn1nc(C(C)(C)C)s/c1=N\C(=O)c1cc(C(F)(F)F)ccc1ON=C(N)c1ccc(F)cc1 [Example 182, 2-({[amino(4-fluorophenyl)methylene]amino}oxy)-N-[(2Z)-3-butyl-5-tert-butyl-1,3,4-thiadiazol-2(3H)-ylidene]-5-(trifluoromethyl)benzamide] | 21 nM | 7 nM | – | –
CCCCn1nc(C(C)(C)C)s/c1=N\C(=O)c1cc(C(F)(F)F)ccc1NNc1ccccn1 [Example 183, N-[(2Z)-3-butyl-5-tert-butyl-1,3,4-thiadiazol-2(3H)-ylidene]-2-(2-pyridin-2-ylhydrazino)-5-(trifluoromethyl)benzamide] | 32 nM | 5.6 nM | – | –
CCCCn1nc(C(C)(C)C)s/c1=N\C(=O)c1cc(C(F)(F)F)ccc1N(C)N(C)C(=O)OC(C)(C)C [Example 184] | 279 nM | 35 nM | – | –
CCCCn1nc(C(C)(C)C)s/c1=N\C(=O)c1cc(C(F)(F)F)ccc1ON=C(C)N [Example 185, 2-({[1-aminoethylidene]amino}oxy)-N-[(2Z)-3-butyl-5-tert-butyl-1,3,4-thiadiazol-2(3H)-ylidene]-5-(trifluoromethyl)benzamide] | 16 nM | 3.6 nM | – | –
CCCCn1nc(C(C)(C)C)s/c1=N\C(=O)c1cc(C(F)(F)F)ccc1ON=C(N)CC [Example 186, 2-({[1-aminopropylidene]amino}oxy)-N-[(2Z)-3-butyl-5-tert-butyl-1,3,4-thiadiazol-2(3H)-ylidene]-5-(trifluoromethyl)benzamide] | 5.1 nM | 2.7 nM | – | –
CCCCn1nc(C(C)(C)C)s/c1=N\C(=O)c1cc(C(F)(F)F)ccc1NN=C(C)C [Example 187, N-[(2Z)-3-butyl-5-tert-butyl-1,3,4-thiadiazol-2(3H)-ylidene]-2-[2-(1-methylethylidene)hydrazino]-5-(trifluoromethyl)benzamide] | 247 nM | 120 nM | – | –
CCCCn1nc(C(C)(C)C)s/c1=N\C(=O)c1cc(C(F)(F)F)ccc1ON=C(N)C1CC1 [Example 188, 2-({[amino(cyclopropyl)methylene]amino}oxy)-N-[(2Z)-3-butyl-5-tert-butyl-1,3,4-thiadiazol-2(3H)-ylidene]-5-(trifluoromethyl)benzamide] | 2.5 nM | 0.9 nM | – | –
CCCCn1nc(C(C)(C)C)s/c1=N\C(=O)c1cc(C(F)(F)F)ccc1ON=C1CCCCCN1 [Example 189, 2-{[azepan-2-ylideneamino]oxy}-N-[(2Z)-3-butyl-5-tert-butyl-1,3,4-thiadiazol-2(3H)-ylidene]-5-(trifluoromethyl)benzamide] | 1.6 nM | 4.9 nM | – | –
CCCCn1nc(C(C)(C)C)s/c1=N\C(=O)c1cc(C(F)(F)F)ccc1ON=C1CCCC1 [Example 190, N-[(2Z)-3-butyl-5-tert-butyl-1,3,4-thiadiazol-2(3H)-ylidene]-2-[(cyclopentylideneamino)oxy]-5-(trifluoromethyl)benzamide] | 1.7 nM | 3.2 nM | – | –
CCCCn1nc(C(C)(C)C)s/c1=N\C(=O)c1cc(C(F)(F)F)ccc1NNC(=O)c1ccncc1 [Example 191, N-[(2Z)-3-butyl-5-tert-butyl-1,3,4-thiadiazol-2(3H)-ylidene]-2-(2-isonicotinoylhydrazino)-5-(trifluoromethyl)benzamide] | 0.8 nM | 0.9 nM | – | –
CCCCn1nc(C(C)(C)C)s/c1=N\C(=O)c1cc(C(F)(F)F)ccc1NNC(=O)OC [Example 192, methyl 2-[2-({[(2Z)-3-butyl-5-tert-butyl-1,3,4-thiadiazol-2(3H)-ylidene]amino}carbonyl)-4-(trifluoromethyl)phenyl]hydrazinecarboxylate] | – | – | 0.7 nM | 0.7 nM
CCCCn1nc(C(C)(C)C)s/c1=N\C(=O)c1cc(C(F)(F)F)ccc1NNC(=O)C(C)(C)C [Example 193, N-[(2Z)-3-butyl-5-tert-butyl-1,3,4-thiadiazol-2(3H)-ylidene]-2-[2-(2,2-dimethylpropanoyl)hydrazino]-5-(trifluoromethyl)benzamide] | 0.4 nM | 0.5 nM | – | –
CCCCn1/c(=N/C(=O)c2cc(C(F)(F)F)ccc2O/N=C(\C)C(F)(F)F)cc(C(C)(C)C)n1C [Example 194, N-[(3E)-2-butyl-5-tert-butyl-1-methyl-1,2-dihydro-3H-pyrazol-3-ylidene]-5-(trifluoromethyl)-2-({[(1E)-2,2,2-trifluoro-1-methylethylidene]amino}oxy)benzamide] | 12 nM | 40 nM | – | –
CCCCn1nc(C(C)(C)C)s/c1=N\C(=O)c1cc(C(F)(F)F)ccc1ON=C(N)c1ccccn1 [Example 196, 2-({[amino(pyridin-2-yl)methylene]amino}oxy)-N-[(2Z)-3-butyl-5-tert-butyl-1,3,4-thiadiazol-2(3H)-ylidene]-5-(trifluoromethyl)benzamide] | 18 nM | 4.1 nM | – | –

Reference: patent US8859596B2, “Compounds as cannabinoid receptor ligands” (priority 2008, dated 2014)
